In US11881606B2, “Conductive materials to drive bacterial carbon dioxide fixation” (The Government of the United States of America, as …, priority 2019, dated 2024):
Several values for one entry are separate records, joined by “and”; a condition that tells them apart may be missing. Equal entries are not always repeated.

Legend:
Biocathode MCL [1] = assay: Current production by Biocathode MCL on electrode set at 0.310 V with antibiotics; assay type: cell-based; details: ampicillin at 100 μg/ml; electrode potential set at 0.310 V
Method: (§1) Biocathode MCL was cultivated in artificial seawater (ASW) medium containing 27.50 g NaCl, 3.80 g MgCl2·6H2O, 6.78 g MgSO4·H2O, 0.72 g KCl, 0.62 g NaHCO3, 5.58 g CaCl2·H2O, 1.00 g NH4Cl, 0.05 g K2HPO4, and 1 ml Wolfe's Trace Mineral Solution per liter. The NaHCO3 was autoclaved in a separate sealed bottle and added after cooling to avoid precipitation. The medium was adjusted to a pH between 6.5 and 6.8 by briefly bubbling with 100% CO2. Source cultures were continuously maintained in 2 liter, 3-electrode reactors with carbon cloth as working and counter electrodes. The working electrode was poised at 0.310 V SHE (standard hydrogen electrode).
For these experiments, bioelectrochemical systems (BES) were 175 ml glass electrochemical reactors (Pine Instruments, Grove City, Pa.). Working electrodes were either 10.5 cm^2 graphite flags (Tri-Gemini, Hillside, Ill.) or carbon cloth (Fuel Cell Earth, Woburn, Mass.) cut to roughly 3.5×1.5 cm for an area of 10.5 cm^2. Counter electrodes were carbon cloth electrodes cut to approximately 3.5×1.5 cm. Graphite flags were sanded down prior to cleaning. Both carbon cloth and graphite flag electrodes were soaked overnight in 1 M hydrochloric acid, then rinsed and soaked overnight in ultrapure deionized water (MilliQ, Millipore-Sigma, Burlington, Mass.). Electrodes were suspended in the reactors from titanium wires, attached by titanium screws. […]

Biocathode MCL [2] = assay: Effect of antibiotics and cyanide on the open circuit potential (OCP) of electrodes with Biocathode MCL biofilm; assay type: cell-based
Method: FIGS. 3A and 3B illustrate the effect of the addition of antibiotics on the open circuit potential (OCP). […]
as §1
For these experiments, bioelectrochemical systems (BES) were 175 ml glass electrochemical reactors (Pine Instruments, Grove City, Pa.). Working electrodes were either 10.5 cm^2 graphite flags (Tri-Gemini, Hillside, Ill.) or carbon cloth (Fuel Cell Earth, Woburn, Mass.) cut to roughly 3.5×1.5 cm for an area of 10.5 cm^2. Counter electrodes were carbon cloth electrodes cut to approximately 3.5×1.5 cm. Graphite flags were sanded down prior to cleaning. Both carbon cloth and graphite flag electrodes were soaked overnight in 1 M hydrochloric acid, then rinsed and soaked overnight in ultrapure deionized water (MilliQ, Millipore-Sigma, Burlington, Mass.). Electrodes were suspended in the reactors from titanium wires, attached by titanium screws. The reference electrodes for the experiments were 3 M KCl Ag/AgCl (BASI, West Lafayette, Ind.) washed in bleach and rinsed in sterile ultrapure deionized water. All potentials are reported here as vs. SHE by adding 0.21V to the experimental potentials vs. Ag/AgCl.
Once assembled, the BES were maintained at 30° C. using water jackets and stirred using small stir bars and stir plates (VWR, Radnor, Pa., USA). The electrodes were connected to a multichannel potentiostat (Biologic, Seyssinet-Pariset, France), which was used to record cyclic voltammograms at fast (20 mV/S) and slow (0.2 mV/S) scan rates, and then to monitor the OCP or, for experiments with set potential, to hold the potential at 0.310 V and monitor current production. After the signal stabilized, the reactors were inoculated with 1 ml of initial inoculum diluted 10^−3 or 10^−4-fold. Based on the cell counts of filtered inoculum, reactors in experiment 1 were inoculated with ca. 30 or ca. 300 cells, while reactors in experiment 2 were inoculated with ca. 110 or ca. 1100 cells and reactors in experiment 3 were inoculated with 700 cells.
The effect of antibiotics on the open circuit potential was examined in order to determine whether the maintenance of the OCP was dependent on metabolically active cells. Because ampicillin kills only dividing cells (by interfering with cell wall formation^21), while kanamycin kills by interfering with translation machinery (killing bacteria that are actively manufacturing proteins^21), these antibiotics were used to determine the rough metabolic state of the cells.
To test how long the cells remained active and sensitive to antibiotics, reactors were incubated for 26 days before antibiotic additions. The inoculated reactors maintained an OCP close to 0.50 V vs. SHE during the 26-day incubation. […] Cyanide, which inhibits cytochrome function, caused an immediate drop in potential in both old and young reactors (FIGS. 3A and 3B).

[3] = added 10 days after inoculation

SMILES | Current production (Biocathode MCL [1]) | OCP at end of drop (Biocathode MCL [2]; [3]) | Time until OCP began dropping (Biocathode MCL [2]; [3]) | Time until OCP reduction began (Biocathode MCL [2]; added 26 days after inoculation) | Effect on OCP (Biocathode MCL [2]; added 26 days after inoculation, followed for two weeks) | Time until drop in OCP began (Biocathode MCL [2]; added 10 days after inoculation, two experiments)
CC1(C)S[C@@H]2[C@H](NC(=O)[C@H](N)c3ccccc3)C(=O)N2[C@H]1C(=O)O [ampicillin] | inhibited | return to its pre-inoculation level | 2 to 3 days | two | not returning to the abiotic OCP even after two weeks | 
NC[C@H]1O[C@H](O[C@H]2[C@H](O)[C@@H](O[C@H]3O[C@H](CO)[C@@H](O)[C@H](N)[C@H]3O)[C@H](N)C[C@@H]2N)[C@H](O)[C@@H](O)[C@@H]1O [kanamycin] |  |  |  |  |  | 13 h and 10 h
